# Experimental data reported in publication PMC8243516, “Inhibition of lysosomal phospholipase A2 predicts drug-induced phospholipidosis” (Journal of Lipid Research, 2021).
# Values joined by “and” are separate entries in the source; they are usually repeats but may differ in a detail not shown here. Identical values can stand only once. Like-named read-outs stand apart in the source and are kept apart here.
# Legend:
# [1] = ref Pubchem and chEMBL databases; cited from earlier work
# [2] = biological target: T1, LPLA2 (Mus musculus, UniProt Q8VEB4); experiment: LPLA2 thermal stability measurement (SYPRO Orange Tm); format: binding
# T1 construct: purchased Proteos Inc. (Kalamazoo, MI)
# T1 sequence (Q8VEB4 34-412): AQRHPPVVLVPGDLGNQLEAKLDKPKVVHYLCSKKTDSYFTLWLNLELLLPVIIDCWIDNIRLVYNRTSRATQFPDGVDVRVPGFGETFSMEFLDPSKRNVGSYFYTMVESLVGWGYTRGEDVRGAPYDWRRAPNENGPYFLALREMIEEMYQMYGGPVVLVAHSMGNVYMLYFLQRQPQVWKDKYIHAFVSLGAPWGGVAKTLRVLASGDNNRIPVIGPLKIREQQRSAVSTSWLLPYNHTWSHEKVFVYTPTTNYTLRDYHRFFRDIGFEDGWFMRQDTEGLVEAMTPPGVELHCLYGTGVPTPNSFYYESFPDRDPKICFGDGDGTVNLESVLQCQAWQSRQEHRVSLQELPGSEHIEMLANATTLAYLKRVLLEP
# [3] = tested on: phospholipidosis; conditions: phospholipidosis reported in vitro; Refs of Table 1; cited from earlier work
# [4] = biological target: T2, recombinant mouse LPLA2 (PLA2G15) (Mus musculus, UniProt Q8VEB4); experiment: Transacylase activity of LPLA2 (1-O-acyl-N-acetylsphingosine synthase, cell-free liposome assay); format: biochemical; conditions: pH 4.5, DOPC/sulfatide liposomes
# T2 construct: purchased Proteos Inc. (Kalamazoo, MI)
# T2 sequence (Q8VEB4 34-412): T1 sequence (Q8VEB4 34-412)
# [5] = 1-O-acyl N-acetylsphingosine synthase activity, read-out: LPLA2 IC50
SMILES,pKa (basic) [1],"(ΔTm)c-(ΔTm)d, difference in melting temperature of LPLA2 alone or in the presence of drug ([2]; N=3 ± SD)",In Vitro PLD [3],"IC50 [4, 5] [µM]","(ΔTm)c-(ΔTm)d, difference in melting temperature of LPLA2 alone or in the presence of drug [2] [°C]","IC50 ([4]; LPLA2 IC50, 1-O-acyl N-acetylsphingosine synthase activity) [µM]"
"CN(C)CCOC(=O)C(c1ccccc1)C1(O)CCCC1 (stereo not shown) [Cyclopentolate, 2-(dimethylamino)ethyl 2-(1-hydroxycyclopentyl)-2-phenylacetate]",8.42,0.87 ± 0.6 °C,Yes,32.2,–,–
"OC[C@@H](O)[C@@H](O)[C@H](O)[C@H](O)CO [Mannitol, (2R,3R,4R,5R)-hexane-1,2,3,4,5,6-hexol]",12.3,1.0 ± 0.0 °C,Yes,160,–,–
"CN(Cc1cc(Br)cc(Br)c1N)C1CCCCC1.Cl [Bromhexine, 2-amino-3,5-dibromo-N-cyclohexyl-N-methylbenzylamine hydrochloride]",9.32,1.26 ± 0.2 °C,Yes,30.8,–,–
"COC(=O)[C@@H]1[C@H]2C[C@H]3c4[nH]c5ccccc5c4CCN3C[C@@H]2CC[C@@H]1O [Yohimbine, methyl (1S,15R,18S,19R,20S)-18-hydroxy-3,13-diazapentacyclo [11.8.0.0^2,^10.0^4,^9.0^15,^20]henicosa-2(10),4,6,8-tetraene-19-carboxylate]",7.65,–,Yes,–,1.52 ± 0.6,200
"CN(CCCN1c2ccccc2CCc2ccccc21)CC(=O)c1ccc(Cl)cc1 [Lofepramine, 2-[(3-{2-azatricyclo[9.4.0.0ˆ{3,8}]pentadeca-1(15),3,5,7,11,13-hexaen-2-yl}propyl) (methyl)amino]-1-(4-chlorophenyl) ethan-1-one]",6.53,0 °C,Yes,13.2,–,–
"C=CCc1ccccc1OCC(O)CNC(C)C (stereo not shown) [Alprenolol, 1-(o-allylphenoxy)-3-(isopropylamino)-2-propanol]",9.67,-1.00 ± 0.1 °C,Yes,173,–,–
"CN(C)CCC(c1ccc(Cl)cc1)c1ccccn1 (stereo not shown) [Chlorpheniramine, [3-(4-chlorophenyl)-3-(pyridin-2-yl)propyl] dimethylamine]",9.47,0.34 ± 0.0 °C,Yes,147,–,–
"CCCCNc1ccc(C(=O)OCCN(C)C)cc1 [Tetracaine, 2-(dimethylamino)ethyl 4-(butylamino)benzoate]",8.42,-1.20 ± 0.5 °C,Yes,333,–,–
"O=c1[nH]c2ccccc2n1C1CCN(CCCC(c2ccc(F)cc2)c2ccc(F)cc2)CC1 [Pimozide, 1-{1-[4,4-bis(4-fluorophenyl)butyl]piperidin-4-yl}-2,3-dihydro-1H-1,3-benzodiazol-2-one]",8.38,–,Yes,10.6,0.26 ± 0.0,–
"CCN(CCCc1ccccc1)CCCc1ccccc1 [Alverine, ethyl bis (3-phenylpropyl)amine]",10.44,0.14 ± 0.1 °C,Yes,40,–,–
"Cc1nc2ccccn2c(=O)c1CCN1CCC(C(=O)c2ccc(F)cc2)CC1 [Pirenperone, 3-[2-[4-(4-Fluorobenzoyl)-1-piperidinyl]ethyl]-2-methyl-4H-pyrido-[1,2-a] pyrimidin-4-one]",8.02,0.79 ± 0.0 °C and 0.79 ± 0.1 °C,Yes,233,–,–
"COC(=O)C1=C(C)NC(C)=C(C(=O)OC(C)(C)CN(C)CCC(c2ccccc2)c2ccccc2)C1c1cccc([N+](=O)[O-])c1 (stereo not shown) [Lercanidipine, 3-{1-[(3,3-diphenylpropyl)(methyl)amino]-2-methylpropan-2-yl} 5-methyl 2,6-dimethyl-4-(3-nitrophenyl)-1,4-dihydropyridine-3,5-dicarboxylate]",9.36,0.21 ± 0.3 °C,Yes,37.2,–,–
"COc1ccc(CN(CCN(C)C)c2ccccn2)cc1 [Pyrilamine, N-[2-(dimethylamino)ethyl]-N-[(4-methoxyphenyl)methyl]pyridin-2-amine]",8.76,0 °C,Yes,214,–,–
"O=C(O)c1ccccc1Nc1cccc(C(F)(F)F)c1 [Flufenamic acid, 2-{[3-(trifluoromethyl)phenyl]amino}benzoic acid]",-2.1,-0.62 ± 0.3 °C,Yes,178,–,–
"CCOc1cc(CC(=O)NC(CC(C)C)c2ccccc2N2CCCCC2)ccc1C(=O)O (stereo not shown) [Repaglinide, 2-ethoxy-4-[2-({3-methyl-1-[2-(1-piperidinyl)phenyl]butyl}amino)-2-oxoethyl]benzoic acid]",4.28,-0.84 ± 1.5 °C,Yes,86.5,–,–
CN(C)CC/C=C1/c2ccccc2Sc2ccc(Cl)cc21 [Chlorprothixene],9.76,-2.0 ± 0.1 °C,Yes,7.78,–,–
"CC1=C(/C=C/C(C)=C/C=C/C(C)=C/CO)C(C)(C)CCC1 [Retinol, (2E,4E,6E,8E)-3,7-dimethyl-9-(2,6,6-trimethylcyclohex-1-en-1-yl)nona-2,4,6,8-tetraen-1-ol]",-2.2,0.81 ± 0.3 °C,Yes,52.5,–,–
"COc1cc(C(=O)NS(=O)(=O)c2ccccc2C)ccc1Cc1cn(C)c2ccc(NC(=O)OC3CCCC3)cc12 [Zafirlukast, cyclopentyl N-[3-({2-methoxy-4-[(2-methylbenzenesulfonyl)carbamoyl]phenyl}methyl)-1-methyl-1H-indol-5-yl]carbamate]",-1.1,1.80 ± 0.4 °C,Yes,3.1,–,–
"OC(CCN1CCCCC1)(c1ccccc1)c1ccccc1 [Pridinol, 1,1-diphenyl-3-(piperidin-1-yl)propan-1-ol]",9.34,0 °C,Yes,285,–,–
"CC(=O)[C@H]1CC[C@H]2[C@@H]3CCC4=CC(=O)CC[C@]4(C)[C@H]3CC[C@]12C [Progesterone, (1S,3aS,3bS,9aR,9bS,11aS)-1-acetyl-9a,11a-dimethyl-1H,2H,3H, 3aH,3bH,4H,5H, 7H,8H,9H,9 aH,9bH, 10H,11H,11aH-cyclopenta [a] phenanthren-7-one]",-4.8,0.61 ± 0.1 °C,Yes,10.5,–,–
"CCOC(=O)c1cncn1[C@H](C)c1ccccc1 [Etomidate, ethyl 1-[(1R)-1-phenylethyl]-1H-imidazole-5-carboxylate]",4.54,-0.76 ± 0.3 °C,Yes,1150,–,–
"CCN(CC)CCOC(=O)C(c1ccccc1)C1CCCCC1 (stereo not shown) [Drofenine, hexahydroadiphenine]",9.21,1.50 ± 0.1 °C,Yes,7.29,–,–
"CCC(C)(C)c1ccc(CC(C)CN2C[C@@H](C)O[C@@H](C)C2)cc1 (stereo partly drawn) [Amorolfine, 2R,6S-2,6-dimethyl-4-(2-{[4-(2-methylbutan-2-yl)phenyl]methyl}propyl)morpholine]",8.49,-0.30 ± 0.1 °C,Yes,41.5,–,–
"CC(=O)N1CCN(c2ccc(OCC3COC(Cn4ccnc4)(c4ccc(Cl)cc4Cl)O3)cc2)CC1 (stereo not shown) [Ketoconazole, 1-[4-(4-{[2-(2,4-dichlorophenyl)-2-(1H-imidazole-1-ylmethyl)-1,3-dioxolan-4-yl]methoxy}phenyl)piperazin-1-yl]ethan-1-one]",6.75,0.42 ± 0.8 °C,Yes,39,–,–
"COc1ccnc(C[S+]([O-])c2nc3ccc(OC(F)F)cc3[nH]2)c1OC (stereo not shown) [Pantoprazole, 6-(difluoromethoxy)-2-[(3,4-dimethoxypyridin-2-yl)methanesulfinyl] -1H-1,3-benzodiazole]",3.55,0.25 ± 0.1 °C,Yes,6.23,–,–
